Source: patent US11897862B2 (Gilead Sciences, Inc., priority 2022, dated 2024)

Tests used:
IKZF1 = target: T1, IKZF1 (Homo sapiens, UniProt Q13422+Q96SW2); assay: HEK293 HiBiT in vitro degradation of IKZF1; format: cell-based; settings: for DC50 / IKZF1 Dmax: HEK293 HiBiT; for DC50: 18-24 hr incubation, normalized to DMSO control, read-out: IKZF1 EC50; for Dmax: HEK293, HEK293 HiBiT; for Dmax / IKZF1 Dmax: maximum degradation at the highest concentration tested
T1 construct: expressed in transfected cells
Description: (§1) In vitro degradation of IKZF1, IKZF2, and SALL4 was measured using HiBiT protein tagging and detection technology (Promega).
(§2) HiBit technology was used to develop the quantitative assays to measure the cellular IKZFs level by tagging an 11 amino acid HiBit peptides […] to the protein of interest. Reporter plasmids were generated by fusing a linker sequence ([…]) followed by the HiBit tag at the C-terminus of IKZF1, IKZF2, and SALL4. The fusion fragments were subsequently cloned into pcDNA5 pcDNA™5/FRT/TO plasmids (Thermo Fisher, cat #V652020) downstream of the tetracycline operator. The resulting plasmids were co-transfected with pOG44 Flp-Recombinase Expression Vector (Thermo Fisher, cat #V600520) into Flp-In™ T-REx HEK293 line (Thermo Fisher, cat #R78077) and a stable cell pool was selected by adding 100 µg/ml of Hygromycin (Thermo Fisher, cat #10687010). The reporter cell enabled Tet-On inducible reporter expression from a single copy of the integrated gene.
(§3) On Day 1, Cells were grown to ˜80% confluency in tissue culture medium (DMEM Glutamax (Gibco10569), 10% Tet free FBS (Takara 631106), and PenStrep Glutamin (Gibco 10378)) in tissue culture flasks. Doxycycline was then added to a final concentration of […] to induce reporter expression at 37° C. overnight.
(§4) On Day 2, 125 nL of serially-diluted solution of testing compounds were dispensed into 384-well white solid assay plates via ECHO acoustic liquid handler. Cells were lifted by 0.25% Trypsin (Gibco 25200) then pelleted by centrifugation (Beckman Avanti J-E) at 500×g for 5 min. Cell pellets were resuspended in TC medium at the concentration of 3e5/mL and 25 μL of cell suspension were added into each well of compound-spotted plates. The plates were returned to a 37° C. incubator overnight (18-24 hr).
(§5) On Day 3, assay plates were removed from the tissue culture incubator and 25 μL of Nano-Glo lytic detection system (Promega, cat #N3030) was added to each well. Plates were incubated at r.t. for 3 min with shaking, and luminescence was read using an Envision reader (Perkin Elmer).
(§6) To assess the IKZF1, IKZF2, and SALL4 degrader potential of exemplified compounds of this disclosure and certain Reference Compounds EC50 and Dmax values were determined for the compounds of Examples 1 to 383 and Reference Compounds A-1, B-1, B-2, B-3, B-4, and C-1 in the HiBiT assays. Asterisks (*) indicate examples for which the data shown represents an average of n≥3.

IKZF2 = IKZF2 (Homo sapiens, UniProt Q96SW2+Q9UKS7); assay: HEK293 HiBiT in vitro degradation of IKZF2; format: cell-based; set-up: expressed in transfected cells; settings: for Dmax: HEK293, HEK293 HiBiT; for Dmax / IKZF2 Dmax: maximum degradation at the highest concentration tested; for DC50 / IKZF2 Dmax: HEK293 HiBiT; for DC50: 18-24 hr incubation, normalized to DMSO control, read-out: IKZF2 EC50
Description: as §1, §2, §3, §4, §5, §6

T1 sequence (Q13422 whole entry): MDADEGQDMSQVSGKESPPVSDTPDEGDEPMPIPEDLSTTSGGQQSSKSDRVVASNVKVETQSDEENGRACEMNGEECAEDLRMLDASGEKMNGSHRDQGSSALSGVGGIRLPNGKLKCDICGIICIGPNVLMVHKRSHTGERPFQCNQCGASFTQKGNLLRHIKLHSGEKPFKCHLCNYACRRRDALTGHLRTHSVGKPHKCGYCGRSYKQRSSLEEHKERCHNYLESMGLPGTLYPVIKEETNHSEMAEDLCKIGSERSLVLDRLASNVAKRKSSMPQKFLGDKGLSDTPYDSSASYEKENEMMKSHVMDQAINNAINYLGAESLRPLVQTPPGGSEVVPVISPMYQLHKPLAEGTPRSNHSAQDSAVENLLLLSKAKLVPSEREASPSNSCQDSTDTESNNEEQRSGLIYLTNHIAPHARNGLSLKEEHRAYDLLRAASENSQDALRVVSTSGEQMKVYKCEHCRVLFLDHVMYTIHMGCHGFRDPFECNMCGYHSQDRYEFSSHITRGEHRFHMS
T1 sequence (Q96SW2 whole entry): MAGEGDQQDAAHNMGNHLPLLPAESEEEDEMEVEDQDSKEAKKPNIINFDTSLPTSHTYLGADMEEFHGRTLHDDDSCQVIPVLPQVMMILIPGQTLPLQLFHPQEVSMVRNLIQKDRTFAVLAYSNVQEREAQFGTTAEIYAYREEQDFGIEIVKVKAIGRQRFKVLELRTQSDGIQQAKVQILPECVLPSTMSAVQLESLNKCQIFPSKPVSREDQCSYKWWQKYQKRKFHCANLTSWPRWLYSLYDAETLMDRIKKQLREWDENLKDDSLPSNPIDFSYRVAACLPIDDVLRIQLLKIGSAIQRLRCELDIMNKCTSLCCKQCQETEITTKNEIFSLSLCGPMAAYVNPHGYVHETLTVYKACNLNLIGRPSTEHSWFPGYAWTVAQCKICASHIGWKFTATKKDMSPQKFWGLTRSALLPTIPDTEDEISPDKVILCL
T1 sequence (Q16531 whole entry partner): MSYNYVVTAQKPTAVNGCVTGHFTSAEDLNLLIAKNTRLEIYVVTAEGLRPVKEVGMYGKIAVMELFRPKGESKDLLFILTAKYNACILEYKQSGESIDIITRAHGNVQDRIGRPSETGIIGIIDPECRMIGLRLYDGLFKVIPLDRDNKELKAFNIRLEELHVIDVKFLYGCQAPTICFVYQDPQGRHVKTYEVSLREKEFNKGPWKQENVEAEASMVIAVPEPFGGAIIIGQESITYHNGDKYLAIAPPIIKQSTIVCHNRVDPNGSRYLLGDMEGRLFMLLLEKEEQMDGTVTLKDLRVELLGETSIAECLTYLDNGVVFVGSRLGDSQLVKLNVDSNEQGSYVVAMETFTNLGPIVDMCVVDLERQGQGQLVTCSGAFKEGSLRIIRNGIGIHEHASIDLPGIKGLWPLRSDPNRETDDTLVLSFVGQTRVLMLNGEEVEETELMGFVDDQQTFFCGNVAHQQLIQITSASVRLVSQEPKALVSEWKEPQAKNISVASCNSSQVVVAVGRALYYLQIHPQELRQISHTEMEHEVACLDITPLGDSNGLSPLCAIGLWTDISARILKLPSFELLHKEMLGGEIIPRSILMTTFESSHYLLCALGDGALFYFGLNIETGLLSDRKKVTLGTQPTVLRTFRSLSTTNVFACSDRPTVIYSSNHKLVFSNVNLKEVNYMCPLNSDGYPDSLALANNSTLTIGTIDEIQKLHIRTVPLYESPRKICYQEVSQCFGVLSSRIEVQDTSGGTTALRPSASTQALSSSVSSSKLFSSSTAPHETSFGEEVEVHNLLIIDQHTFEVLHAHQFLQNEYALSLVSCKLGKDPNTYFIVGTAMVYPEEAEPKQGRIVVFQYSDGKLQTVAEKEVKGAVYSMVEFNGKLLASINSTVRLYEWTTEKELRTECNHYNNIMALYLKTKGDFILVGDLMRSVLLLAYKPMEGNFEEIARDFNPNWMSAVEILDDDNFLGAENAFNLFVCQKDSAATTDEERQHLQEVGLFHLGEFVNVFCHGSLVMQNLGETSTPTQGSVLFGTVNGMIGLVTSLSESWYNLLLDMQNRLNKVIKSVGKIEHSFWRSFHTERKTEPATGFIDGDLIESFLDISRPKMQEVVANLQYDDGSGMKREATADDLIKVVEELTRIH
Sequence of IKZF2 (Q9UKS7 1-500 isoform Q9UKS7-2): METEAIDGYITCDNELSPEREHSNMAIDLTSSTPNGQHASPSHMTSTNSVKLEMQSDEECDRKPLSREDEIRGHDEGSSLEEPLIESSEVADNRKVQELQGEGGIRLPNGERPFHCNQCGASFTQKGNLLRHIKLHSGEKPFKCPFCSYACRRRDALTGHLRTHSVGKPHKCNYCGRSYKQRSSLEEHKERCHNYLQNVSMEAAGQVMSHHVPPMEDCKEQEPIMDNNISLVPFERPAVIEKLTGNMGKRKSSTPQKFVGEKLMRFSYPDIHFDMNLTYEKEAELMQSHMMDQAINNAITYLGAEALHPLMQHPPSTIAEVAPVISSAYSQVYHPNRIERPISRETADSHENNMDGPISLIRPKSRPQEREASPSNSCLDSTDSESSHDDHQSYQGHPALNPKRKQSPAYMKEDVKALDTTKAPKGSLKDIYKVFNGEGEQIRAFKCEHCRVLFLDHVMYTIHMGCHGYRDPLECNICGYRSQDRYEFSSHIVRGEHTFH
Sequence of IKZF2 (Q96SW2 whole entry): as the sequence (Q96SW2 whole entry) above
Sequence of IKZF2 (Q16531 whole entry partner): as the sequence (Q16531 whole entry partner) above

Row | DC50 (IKZF1) | Dmax (IKZF2) | DC50 (IKZF2) | Dmax (IKZF1) | IKZF2 Dmax (IKZF2) | IKZF1 Dmax (IKZF1) | Structure (SMILES)
1 | > 1000 nM | 76% | 49 nM | – | – | – | O=C1CCC(N2Cc3cc(C[C@H]4OCCC[C@@H]4NC4CCC(C(F)(F)F)CC4)ccc3C2=O)C(=O)N1 (single isomer, unassigned) [Example 356]
2 | 465 nM | – | 23 nM | 40% | 89% | – | O=C1CCC(N2Cc3cc(C[C@H]4OCCC[C@@H]4NC4CCC(C(F)(F)F)CC4)ccc3C2=O)C(=O)N1 (single isomer, unassigned) [Example 357]
3 | 231 nM | 100% | 18 nM | 34% | – | – | O=C1CCC(N2Cc3cc(C[C@H]4CCCC[C@@H]4NC4CCc5cn[nH]c5C4)ccc3C2=O)C(=O)N1 (single isomer, unassigned) [Example 358]
4 | 249 nM | – | 9 nM | – | 101% | 43% | O=C1CCC(N2Cc3cc(C[C@H]4CCCC[C@@H]4NC4CCc5cn[nH]c5C4)ccc3C2=O)C(=O)N1 (single isomer, unassigned) [Example 359]
5 | > 1000 nM | 90% | 139 nM | – | – | – | O=C1CCC(N2Cc3c(ccc(C[C@H]4OCCC[C@@H]4NC4CCc5cn[nH]c5C4)c3F)C2=O)C(=O)N1 (single isomer, unassigned) [Example 360]
6 | > 1000 nM | – | 34 nM | – | 102% | – | O=C1CCC(N2Cc3c(ccc(C[C@H]4OCCC[C@@H]4NC4CCc5cn[nH]c5C4)c3F)C2=O)C(=O)N1 (single isomer, unassigned) [Example 361]
7 | 122 nM | – | 3 nM | – | 95% | 43% | O=C1CCC(N2Cc3c(ccc(C[C@H]4OCCC[C@@H]4NC4CCC5(CC4)CC5(F)F)c3F)C2=O)C(=O)N1 (single isomer, unassigned) [Example 365]
8 | 117 nM | 95% | 10 nM | 53% | – | – | CC(N[C@H]1CCCC[C@@H]1Cc1ccc2c(c1)CN(C1CCC(=O)NC1=O)C2=O)C1CCS(=O)(=O)CC1 (single isomer, unassigned) [Example 370]
9 | 461 nM | – | 62 nM | – | 94% | 50% | CC(N[C@H]1CCCC[C@@H]1Cc1ccc2c(c1)CN(C1CCC(=O)NC1=O)C2=O)C1CCS(=O)(=O)CC1 (single isomer, unassigned) [Example 371]
10 | > 1000 nM | 94% | 5 nM | – | – | – | O=C1CC[C@@H](N2Cc3c(ccc(C[C@H]4OCCC[C@@H]4N[C@H]4CC[C@@H](F)CC4)c3F)C2=O)C(=O)N1 (single isomer, unassigned) [Example 372]
11 | > 1000 nM | – | 629 nM | – | 48% | – | O=C1CCC(N2Cc3cc(C[C@H]4CC(CO)CC[C@@H]4NC4CCCCC4)ccc3C2=O)C(=O)N1 (single isomer, unassigned) [Example 382]
12 | > 1000 nM | – | 226 nM | – | 77% | – | O=C1CCC(N2Cc3cc(C[C@H]4CC(CO)CC[C@@H]4NC4CCCCC4)ccc3C2=O)C(=O)N1 (single isomer, unassigned) [Example 383]
13 | 933 nM | 82% | 225 nM | 30% | – | – | N[C@H]1CCCC[C@@H]1Cc1ccc2c(c1)CN(C1CCC(=O)NC1=O)C2=O (stereo partly drawn) [Example 1, 3-(5-(((1R,2S)-2-aminocyclohexyl)methyl)-1-oxoisoindolin-2-yl)piperidine-2,6-dione]
14 | 34 nM | 94% | 19 nM | 38% | – | – | O=C1CCC(N2Cc3cc(C[C@H]4CCCC[C@@H]4NCc4ccccc4Cl)ccc3C2=O)C(=O)N1 (stereo partly drawn) [Example 3, 3-(5-(((1R,2S)-2-((2-chlorobenzyl)amino)cyclohexyl)methyl)-1-oxoisoindolin-2-yl)piperidine-2,6-dione]
